“And” between values parts separate entries of the source, which are not always exact repeats. Identical values can stand only once.
Tests used:
anti-albumin antibody = experiment: Adjuvant character in aqueous phase: anti-albumin antibody by passive hemagglutination (esters); assay type: in vivo, Swiss mice
Experimental: In the series of tests of which the results are indicated hereafter, the influence of the active principle according to the invention on the proportion of the anti-albumin antibody has been studied under the following conditions.
Groups of 8 Swiss mice aged two months receive by subcutaneous injection (SC) or orally (PO) 0.5 mg of antigen constituted by the albumin of bovine serum (BSA) with or without the substance tested in an isotonic saline solution. This large dose of antigen, since it is situated at the limit of the paralysing dose with respect to the immunising response, on account of this fact has a weak response or no response to the antigen alone in the case of the controls; it therefore constitutes a severe criterion for showing the activity of an adjuvant substance. Thirty days later, the mice receive, by the same method of administration, a further dose containing 0.1 mg of the same antigen.
The proportion of antibody is determined by passive hemagglutination by using the red blood corpuscles of sheep treated with formalin and recovered from the antigen studied according to the method described by A. A. Hirata and M. W. Brandiss (J. Immunol., 100, 641-648, 1968). The taking of the blood occurred 14, 28, 34 and 36 days after the first injection.
By way of comparison, mice receive, instead of the product according to the invention, either lipopolysaccharides (LPS) (extract of S.Enteritidis by the water-phenol method), or the adjuvant denoted by the name "WSA" and described by Adam et al. [Infect. Immun. (1973) 7, 855-861]. The control mice only receive the antigen.
The proportions of antibody express the maximum serum dilution which agglutinates a given quantity of red blood corpuscles of sheep.

[1] = test system: antibody specific to the ovalbumin; experiment: Adjuvant character in oily phase: serum antibody specific to ovalbumin (esters); assay type: in vivo, Hartley guinea-pigs; details: 100μg in FIA emulsion; for Serum antibody Precipitation: intradermal, 21 days; for Serum antibody Agglutination: passive hemagglutination
[2] = test system: retarded hypersensitivity to ovalbumin; experiment: Retarded hypersensitivity cutaneous test to ovalbumin (esters); assay type: in vivo, Hartley guinea-pigs; details: 100μg in FIA emulsion, challenge day 18, read 48 hours after
Experimental: The tests are effected on batches of 6 Hartley guinea-pigs, females, of 350 g. The administration is made by intradermal injection in the planter pad of each of the hind feet. […] The compound according to the invention is administered at the rate of 0.1 mg contained in the emulsion containing the FIA.
Eighteen days after this immunisation, one looks for possible reactions of retarded hypersensitivity in the antigen on injecting indradermally 0.01 mg or 5 μg of ovalbumin on the side of the animals, and 48 hours after, the reaction at the point of injection is observed. The diameter in mm of the reaction thus caused is measured.

Klebsiella pneumoniae = experiment: Anti-infectious protection, intramuscular inoculation of 10^4 K.pneumoniae; assay type: in vivo, hybrid mice (C57B1/6×AKR)Fl; details: for Number of animals surviving on day 3 / Number of animals surviving on day 5 / Number of animals surviving on day 8: mouse, in vivo
anti-albumin antibodies [3] = experiment: Adjuvant character in aqueous solution: anti-albumin antibodies by passive hemagglutination (NHCH3 series); assay type: in vivo, Swiss mice
Experimental: Groups of 8 Swiss mice aged two months receive, by subcutaneous injection, 0.5 mg of antigen constituted by the albumin of bovine serum (BSA) and 0.1 mg of the substance tested in an isotonic saline solution. […] Thirty days later, the mice receive a further dose containing 0.1 mg of the same antigen.
The strength of antibody is determined by passive hemagglutination, by using the red blood corpuscles of sheep treated for formalin and recovered from the antigen studied by the method described by A. A. Hirata and M. W. Brandiss (J. Immunol., 100, 641-648, 1968). The taking of the blood took place 14, 28, 34 and 36 days after the first injection.

antibody to ovalbumin = experiment: Adjuvant character in oily phase: proportion of antibody to ovalbumin (NHCH3 series); assay type: in vivo, Hartley guinea-pigs; details: 500 μg ovalbumin, 100 μg in FIA emulsion, 21 days
Experimental: As for the preceding tests, one follows the increase of the proportion of antibody caused by the injection of antigen and of the compound of the invention, but, in the present case, the injection contains an oily phase constituted by Freund's incomplete adjuvant (in water-in-oil emulsion).
For these tests, Hartley guinea-pigs of 350 g were used. The control animals receive, in each of the hind feet 0.1 ml of emulsion, either of FIA, or of FCA (Freund's complete adjuvant) containing 500 μg of ovalbumin (antigen). The test product is administered at the rate of 100 μg, in an emulsion of FIA.
21 days after the injection, the proportion of antibody is determined by passive hemagglutatination (PHA), as previously, and by precipitation by the method of Folin.

mice = experiment: LD50 by intravenous injection on mice, Mur-NAc-L-Ser-D-iso-Gln; assay type: in vivo; details: mice aged two months
Experimental: By progressively increasing the doses administered, that for which the mortality of the mice of a single batch is established at 50% (LD50) is determined.

anti-albumin antibodies [4] = experiment: Adjuvant character in aqueous phase, 0.5 mg BSA (Ser series); assay type: in vivo, Swiss mice
Experimental: In the series of tests of which the results are indicated hereafter, the influence of the active principle according to the invention on the strength of the anti-albumin antibodies has been studied under the following conditions.
(§1) Groups of 8 Swiss mice aged two months receive, by subcutaneous injection, 0.5 mg of antigen constituted by the albumin of bovine serum (BSA) and 0.1 mg of the tested substance in an isotonic saline solution. This high dose of antigen, since it is situated at the limit of the paralysing dose with respect to the immunising response, therefore carries with it a weak response or no response to the antigen alone in the tests; it then constitutes a severe criterion for showing the activity of an adjuvant substance. Thirty days later, the mice receive a further dose containing 0.1 mg of the same antigen.
(§2) The strength of the antibody is determined by passive hemagglutination by using the red blood corpuscles of sheep treated with formalin and recovered from the antigen studied by the method described by A. A. Hirata and M. W. Brandiss (J. Immunol., 100, 641-648, 1968). The taking of the blood occurred 14, 28, 34 and 36 days after the first injection.
(§3) By way of comparison, the mice receive, instead of the Mur-NAc-L-Ser-D-iso-Gln, either lipopolysaccharides (LPS) (extract of S. Enteritidis by the water-phenol method), or the adjuvant denoted by the name "WSA" and described by Adam et al. [Infect. Immun. (1973) 7, 855-861]. The control mice only received the antigen.

anti-albumin antibodies [5] = experiment: Adjuvant character in aqueous phase, first antigen dose 0.05 mg BSA, PA and ABC (Ser series); assay type: in vivo, Swiss mice; details: 100 μg, first BSA dose 0.05 mg
Experimental: as §1, §2, §3
These tests were carried out again with limitation of the dose of antigen in the first injection to 0.05 mg, the other conditions being the same. This weaker dose of antigen gives by itself a positive response with the controls which have received the antigen without adjuvant. It thus allows to be shown a substance which inhibits the response of immunising the disorder. Moreover, an adjuvant substance, under these conditions, always increases the strength of antibody with respect to that of the controls.
In these tests, the determination of the strength of antibody has been effected simultaneously by passive hemagglutination (PA) and by the method of fixation of the antigen by the serum (ABC), such as described by P. Minden and S. Parr (Handbook of Exp. Immunol., P. 463, D. M. Weir ed. Blackwell Scient. Pub. Oxford and Edinburgh, 1967).

K. pneumoniae = test system: K. pneumoniae; set-up: species or system mice; details: mouse, in vivo, iv
[6] = 100μg S.C. with BSA 0.5 mg in isotonic saline, maximum serum dilution agglutinating
[7] = 100μg S.C. with BSA 0.5 mg, further 0.1 mg BSA at 30 days
[8] = I.V. 100 μg, 24 hours before the infection
[9] = 100μg S.C. with BSA 0.5 mg in isotonic saline
[10] = I.V. 100 μg, 1 hour after the infection
[11] = iv, listed as Mur-NAc-L-Ala-D-Glu-(OCH3)2
[12] = per os 2000 μg, 24 hours before the infection

Compound | Proportion of antibody 28th day (anti-albumin antibody; 100μg S.C. with BSA 0.5 mg) | Proportion of antibody 14th day (anti-albumin antibody; [6]) | Proportion of antibody 34th day (anti-albumin antibody; [7]) | Proportion of antibody 36th day (anti-albumin antibody; [7]) | Serum antibody Precipitation ([1]; ovalbumin 0.5 mg) | Serum antibody Agglutination ([1]; ovalbumin 0.5 mg) | Cutaneous test (diameter in mm) ([2]; ovalbumin 0.5 mg) | % of protection (Klebsiella pneumoniae; [8]) | Number of animals surviving on day 3 (Klebsiella pneumoniae; iv) | Number of animals surviving on day 5 (Klebsiella pneumoniae; iv) | Number of animals surviving on day 8 (Klebsiella pneumoniae; iv) | % of protection (Klebsiella pneumoniae; [10]) | Number of animals surviving on day 3 (Klebsiella pneumoniae) | Number of animals surviving on day 5 (Klebsiella pneumoniae) | Number of animals surviving on day 8 (Klebsiella pneumoniae) | % of protection (Klebsiella pneumoniae; [12]) | % of protection (K. pneumoniae) | Number of animals surviving on day 3 (K. pneumoniae) | Number of animals surviving on day 5 (K. pneumoniae) | Number of animals surviving on day 8 (K. pneumoniae) | further results
COC(=O)CC[C@@H](NC(=O)[C@H](C)NC(=O)[C@@H](C)OC1C(O)C(CO)OC(O)C1NC(C)=O)C(N)=O (stereo partly drawn) [Mur-NAc-L-Ala-D-iso-Gln(OCH3), 2-(2-acetamido-2-deoxy-3-O-D-glucopyranose)-D-propionyl-L-alanyl-D-isoglutamine methyl ester] | 12 | 12 | 100 | 800 | 2100 µg/mL | 3000 | 12 mm | 29% | 21 | 3 | 11 |  |  |  |  |  |  |  |  |  | 
CNC(=O)C(CCC(=O)O)NC(=O)C(C)NC(=O)C(C)OC1C(O)C(CO)OC(O)C1NC(C)=O [Mur-NAc-L-Ala-D-Glu(NHCH3), 2-(2-acetamido-2-deoxy-3-O-D-glucopyranosyl)-D-propionyl-L-alanyl-D-(α-methylamide)-glutamic acid] |  |  |  |  |  |  |  |  |  |  |  |  |  |  |  |  |  |  |  |  | strength of antibody 14th day (anti-albumin antibodies [3]; [9]): 6; strength of antibody 34th day (anti-albumin antibodies [3]; [7]): 1600; strength of antibody day (fourth column, 36 days) (anti-albumin antibodies [3]; [7]): 1600; Proportion of antibody Agglutination (antibody to ovalbumin; PHA): 6100; Proportion of antibody Precipitation (antibody to ovalbumin; method of Folin): 5500
CC(=O)NC1C(O)OC(CO)C(O)C1OC(C)C(=O)NC(CO)C(=O)NC(CCC(=O)O)C(N)=O [Mur-NAc-L-Ser-D-iso-Gln, 2-(2-acetamido-2-deoxy-3-O-D-glucopyranosyl)-D-propionyl-L-seryl-D-isoglutamine] |  |  |  |  |  |  |  |  |  |  |  |  |  |  |  |  |  |  |  |  | LD50 (mice): > 1 g per kg; Strength of antibody 28th day (anti-albumin antibodies [4]; 100μg S.C. with BSA 0.5 mg): 25; strength of antibody 14th day (anti-albumin antibodies [4]; [9]): 12; Strength of antibody 36th day (anti-albumin antibodies [4]; [7]): 1600; strength of antibody 34th day (anti-albumin antibodies [4]; [7]): 1600; Strength of antibody 28th day ABC (anti-albumin antibodies [5]): < 20; Strength of antibody 28th day PA (anti-albumin antibodies [5]): 3; Strength of antibody 34th day ABC (anti-albumin antibodies [5]): < 20; Strength of antibody 34th day PA (anti-albumin antibodies [5]): 50; Strength of antibody 42nd day PA (anti-albumin antibodies [5]): 260; Strength of antibody 36 day ABC (anti-albumin antibodies [5]): 230; Strength of antibody 36 day PA (anti-albumin antibodies [5]): 800; Strength of antibody 14th day ABC (anti-albumin antibodies [5]; fixation of the antigen by the serum): < 20; Strength of antibody 14th day PA (anti-albumin antibodies [5]; passive hemagglutination): < 3
COC(=O)CC[C@@H](NC(=O)[C@H](C)NC(=O)[C@@H](C)OC1C(O)C(CO)OC(O)C1NC(C)=O)C(=O)OC (stereo partly drawn) [Mur-NAc-L-Ala-D-Glu(OCH3)2, 2-(2-acetamido-2-deoxy-3-O-D-glucopyranose)-D-propionyl-L-alanyl-D-glutamic dimethyl ester] | 50 | 50 | 400 | 800 | 950 µg/mL | 2600 | 6.2 mm | 46% | 8 | 8 | 8 | 88% | 10 | 9 | 8 | 50% | 52.5% | 15 | 12 | 10 | Number of animals surviving on day 3 (Klebsiella pneumoniae; [11]): 21; Number of animals surviving on day 5 (Klebsiella pneumoniae; [11]): 19; Number of animals surviving on day 8 (Klebsiella pneumoniae; [11]): 15
COC(=O)[C@@H](CCC(=O)O)NC(=O)[C@H](C)NC(=O)[C@@H](C)OC1C(O)C(CO)OC(O)C1NC(C)=O (stereo partly drawn) [Mur-NAc-L-Ala-D-Glu-α-OCH3, 2-(2-acetamido-2-deoxy-3-O-D-glucopyranose)-D-propionyl-L-alanyl-D-glutamic α-methyl ester] | 12 | 12 | 200 | 400 |  |  |  | 67% | 24 and 16 | 24 and 16 | 23 and 14 | 88% | 11 | 9 | 6 | 40.5% | 65% | 16 | 16 | 12 | Proportion of antibody 14th day (anti-albumin antibody; 10μg S.C. with BSA 0.5 mg): 6; Proportion of antibody 28th day (anti-albumin antibody; 10μg S.C. with BSA 0.5 mg): 6; Proportion of antibody 34th day (anti-albumin antibody; 10μg S.C. with BSA 0.5 mg): 200; Proportion of antibody 36th day (anti-albumin antibody; 10μg S.C. with BSA 0.5 mg): 400; Proportion of antibody 14th day (anti-albumin antibody; 2000μg P.O. with BSA 0.5 mg): 6; Proportion of antibody 28th day (anti-albumin antibody; 2000μg P.O. with BSA 0.5 mg): 6; Proportion of antibody 34th day (anti-albumin antibody; 2000μg P.O. with BSA 0.5 mg): 50; Proportion of antibody 36th day (anti-albumin antibody; 2000μg P.O. with BSA 0.5 mg): 200; Serum antibody Precipitation ([1]; ovalbumin 1 mg, nitrogen precipitable per ml serum): 2600 µg/mL; Cutaneous test (diameter in mm) ([2]; ovalbumin 1 mg): 6 ± 3 mm

— patent publication US4153684A, “Immunizing and anti-infectious adjuvant agents constituted by N-acetyl-muramyl-L-alanyl-D-glutamic acid derivatives” (priority 1976, dated 1979)
